Results published in ChEMBL document CHEMBL1201862, “PubChem BioAssay data set” (2004).
Activity calls are given as the source filed them.

Key:
Cytochrome P450 2C9 = Cytochrome P450 2C9 (Homo sapiens, UniProt P11712)
Cytochrome P450 2D6 = Cytochrome P450 2D6 (Homo sapiens, UniProt P10635);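 further: CYP2D6 member of a cytochrome P450 panel assay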
[1] = target: T1, G-protein coupled receptor 35 (Homo sapiens, UniProt Q9HC97); experiment: SAR analysis of Agonists of the GPR35 Receptor using an Image-Based Assay - Set 4. [Related pubchem assays (depositor defined):AID2013, AID2026]; type: functional
T1 sequence (Q9HC97 whole entry): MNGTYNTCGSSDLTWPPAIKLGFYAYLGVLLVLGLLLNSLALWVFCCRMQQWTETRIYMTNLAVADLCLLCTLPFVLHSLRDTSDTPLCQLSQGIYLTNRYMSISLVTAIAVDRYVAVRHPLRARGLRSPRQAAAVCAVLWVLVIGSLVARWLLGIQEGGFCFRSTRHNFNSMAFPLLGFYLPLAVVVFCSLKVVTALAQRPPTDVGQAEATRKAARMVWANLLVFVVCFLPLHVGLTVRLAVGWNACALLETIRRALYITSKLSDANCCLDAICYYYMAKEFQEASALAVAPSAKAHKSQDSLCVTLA

Cannabinoid receptor 1 [2] = target: T2, Cannabinoid receptor 1 (Homo sapiens, UniProt P21554); experiment: SAR analysis of agonists of the Cannabinoid Receptor 1 using an Image-Based Assay - Set 4. [Related pubchem assays (depositor defined):AID2013, AID2026]; type: functional
T2 sequence (P21554 whole entry): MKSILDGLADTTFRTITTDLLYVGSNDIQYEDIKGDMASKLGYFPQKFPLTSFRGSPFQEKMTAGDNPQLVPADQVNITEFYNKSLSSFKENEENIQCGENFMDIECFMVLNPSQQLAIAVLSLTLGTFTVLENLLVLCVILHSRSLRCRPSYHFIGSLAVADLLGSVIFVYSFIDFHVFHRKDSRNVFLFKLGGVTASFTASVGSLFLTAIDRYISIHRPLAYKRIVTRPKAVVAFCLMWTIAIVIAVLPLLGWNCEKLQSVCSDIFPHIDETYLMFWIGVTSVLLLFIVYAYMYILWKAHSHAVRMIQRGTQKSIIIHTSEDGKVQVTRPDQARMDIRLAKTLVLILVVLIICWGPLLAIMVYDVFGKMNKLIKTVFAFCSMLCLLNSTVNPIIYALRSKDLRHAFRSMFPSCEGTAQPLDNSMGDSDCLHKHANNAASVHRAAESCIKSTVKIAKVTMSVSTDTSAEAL

[3] = target: T1, G-protein coupled receptor 35; experiment: SAR analysis of Antagonists of the GPR35 Receptor using an Image-Based Assay - Set 6. [Related pubchem assays (depositor defined):AID2013, AID2026]; type: functional
Cannabinoid receptor 1 [4] = target: T2, Cannabinoid receptor 1; experiment: SAR analysis of antagonists of the Cannabinoid Receptor 1 using an Image-Based Assay - Set 4. [Related pubchem assays (depositor defined):AID2013, AID2026]; type: functional
[5] = target: G-protein coupled receptor 55 (Homo sapiens, UniProt Q9Y2T6); experiment: SAR Analysis of Selective Antagonists of GPR55 using an Image-Based Assay - Set 4. [Related pubchem assays (depositor defined):AID2013, AID2026]; type: functional;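 further: antagonism of response to 5 µM lysophosphatidylinositol agonist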
G-protein coupled receptor 55, sequence (Q9Y2T6 whole entry): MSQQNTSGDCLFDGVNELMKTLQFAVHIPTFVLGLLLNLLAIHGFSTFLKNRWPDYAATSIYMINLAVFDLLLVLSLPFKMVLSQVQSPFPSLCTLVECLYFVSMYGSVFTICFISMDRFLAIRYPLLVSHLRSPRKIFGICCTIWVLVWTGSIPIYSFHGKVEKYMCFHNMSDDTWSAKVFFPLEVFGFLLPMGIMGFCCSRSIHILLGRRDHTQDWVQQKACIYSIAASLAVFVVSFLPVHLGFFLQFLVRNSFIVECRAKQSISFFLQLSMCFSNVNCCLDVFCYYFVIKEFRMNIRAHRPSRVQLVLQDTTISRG

Cannabinoid receptor 2 [6] = target: T3, Cannabinoid receptor 2 (Homo sapiens, UniProt P34972); experiment: SAR analysis of antagonists of the Cannabinoid Receptor 2 using an Image-Based Assay - Set 3. [Related pubchem assays (depositor defined):AID2013, AID2026]; type: functional
T3 sequence (P34972 whole entry): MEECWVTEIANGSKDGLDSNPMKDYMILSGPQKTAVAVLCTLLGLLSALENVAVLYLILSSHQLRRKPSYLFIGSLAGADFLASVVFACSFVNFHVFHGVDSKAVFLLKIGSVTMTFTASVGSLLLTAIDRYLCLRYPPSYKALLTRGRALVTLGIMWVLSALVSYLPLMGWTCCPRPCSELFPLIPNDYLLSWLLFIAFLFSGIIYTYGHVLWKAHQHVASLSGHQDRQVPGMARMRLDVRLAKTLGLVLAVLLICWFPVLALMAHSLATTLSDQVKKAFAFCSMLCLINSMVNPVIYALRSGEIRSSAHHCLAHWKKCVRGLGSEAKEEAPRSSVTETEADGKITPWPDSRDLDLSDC

Cannabinoid receptor 2 [7] = target: T3, Cannabinoid receptor 2; experiment: SAR analysis of agonists of the Cannabinoid Receptor 2 using an Image-Based Assay - Set 3. [Related pubchem assays (depositor defined):AID2013, AID2026]; type: functional
Escherichia coli = experiment: microbe, parasite or virus in culture
Nonstructural protein 1 = Nonstructural protein 1 (Influenza A virus, UniProt Q194T2); type: functional, Influenza A virus (A/California/07/2009(H1N1))
Nonstructural protein 1, sequence (Q194T2 whole entry): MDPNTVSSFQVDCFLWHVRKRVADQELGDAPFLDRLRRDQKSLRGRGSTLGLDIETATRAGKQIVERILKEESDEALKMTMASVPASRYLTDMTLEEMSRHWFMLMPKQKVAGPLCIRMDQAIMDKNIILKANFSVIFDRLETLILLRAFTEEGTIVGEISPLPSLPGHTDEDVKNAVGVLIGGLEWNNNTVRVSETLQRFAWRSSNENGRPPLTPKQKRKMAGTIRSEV

HEK293 [8] = experiment: cells; type: functional, cell-based; settings: Homo sapiens
[9] = target: T4, Nuclear receptor subfamily 0 group B member 1 (Homo sapiens, UniProt P51843); experiment: Luminescence-based cell-based high throughput dose response assay for inhibitors of the orphan nuclear receptor subfamily 0, group B, member 1 (DAX1; NR0B1). [Related pubchem assays (depositor defined):AID504766, AID504790]; type: functional
T4 sequence (P51843 whole entry): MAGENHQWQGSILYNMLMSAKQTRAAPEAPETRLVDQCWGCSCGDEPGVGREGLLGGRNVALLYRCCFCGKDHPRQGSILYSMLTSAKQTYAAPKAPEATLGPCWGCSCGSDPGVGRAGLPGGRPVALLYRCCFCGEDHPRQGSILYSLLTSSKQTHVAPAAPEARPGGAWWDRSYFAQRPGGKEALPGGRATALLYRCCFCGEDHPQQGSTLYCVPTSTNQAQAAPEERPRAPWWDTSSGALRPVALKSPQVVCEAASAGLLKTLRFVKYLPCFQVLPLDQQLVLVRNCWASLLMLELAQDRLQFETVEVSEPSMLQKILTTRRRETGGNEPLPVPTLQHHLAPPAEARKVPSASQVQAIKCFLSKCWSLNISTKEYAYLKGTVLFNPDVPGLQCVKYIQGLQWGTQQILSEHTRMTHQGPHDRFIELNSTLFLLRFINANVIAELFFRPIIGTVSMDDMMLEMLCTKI

Trypsin = Trypsin (Sus scrofa, UniProt P00761); experiment: porcine trypsin inhibitors, dose response, selectivity assay for Rce1 protease inhibitor project, biochemical, quenched peptide fluorescence, cherry-pick (AID 488789)
Trypsin, sequence (P00761 whole entry): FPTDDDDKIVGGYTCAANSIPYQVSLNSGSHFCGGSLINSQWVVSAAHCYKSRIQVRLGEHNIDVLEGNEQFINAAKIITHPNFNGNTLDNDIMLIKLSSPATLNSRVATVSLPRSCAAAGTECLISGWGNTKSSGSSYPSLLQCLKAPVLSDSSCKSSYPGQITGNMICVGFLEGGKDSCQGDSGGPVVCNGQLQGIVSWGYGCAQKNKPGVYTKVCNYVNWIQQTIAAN

CAAX prenyl protease 2 [10] = target: T5, CAAX prenyl protease 2 (Saccharomyces cerevisiae S288c, UniProt Q03530); type: biochemical
T5 sequence (Q03530 whole entry): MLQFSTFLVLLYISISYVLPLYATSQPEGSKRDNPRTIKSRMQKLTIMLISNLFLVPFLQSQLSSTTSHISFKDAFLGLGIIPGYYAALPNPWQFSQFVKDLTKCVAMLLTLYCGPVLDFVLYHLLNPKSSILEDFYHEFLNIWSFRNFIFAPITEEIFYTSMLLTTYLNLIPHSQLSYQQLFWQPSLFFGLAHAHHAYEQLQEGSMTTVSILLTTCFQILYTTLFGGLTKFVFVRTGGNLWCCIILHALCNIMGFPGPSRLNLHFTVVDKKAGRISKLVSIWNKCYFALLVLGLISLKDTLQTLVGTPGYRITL

CAAX prenyl protease 2 [11] = target: T6, CAAX prenyl protease 2 (Homo sapiens, UniProt Q9Y256); experiment: human Rce1 protease inhibitors, dose response, biochemical, yeast membranes, quenched-peptide fluorescence, cherry-pick (AID 588849)
T6 sequence (Q9Y256 whole entry): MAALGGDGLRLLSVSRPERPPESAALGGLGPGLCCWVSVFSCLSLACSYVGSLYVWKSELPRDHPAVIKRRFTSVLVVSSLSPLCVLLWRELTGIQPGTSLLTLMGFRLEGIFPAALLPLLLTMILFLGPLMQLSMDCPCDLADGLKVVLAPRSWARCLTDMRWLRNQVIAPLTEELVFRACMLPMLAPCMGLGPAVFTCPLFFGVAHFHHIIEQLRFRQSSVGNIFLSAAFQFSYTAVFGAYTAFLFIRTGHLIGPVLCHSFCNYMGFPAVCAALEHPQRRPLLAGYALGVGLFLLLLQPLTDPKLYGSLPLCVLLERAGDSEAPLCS

[12] = HEp-2 cell cytotoxicity, dose response, cytotoxicity control for RSV inhibitor project, HTS (AID 2410); type: functional; settings: human respiratory syncytial virus
[13] = system: Streptococcus sp. 'group A'; experiment: growth inhibition of control SK(-) GAS strain, dose response, counter-screen for streptokinase expression inhibitor project, luminescence, kanamycin, BacTiterGlo, confirmation (AID 1900); type: functional, organism-based
Streptokinase A = target: T7, Streptokinase A (Streptococcus pyogenes serotype M1, UniProt P10520); experiment: S. pyogenes streptokinase expression inhibitors, potency, dose response, plasminogen activation absorbance, OD405 (AID 1914); type: functional, Streptococcus pyogenes M1 GAS;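 further: secreted streptokinase activity via plasminogen activation per viability signal from cell pellet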
T7 sequence (P10520 whole entry): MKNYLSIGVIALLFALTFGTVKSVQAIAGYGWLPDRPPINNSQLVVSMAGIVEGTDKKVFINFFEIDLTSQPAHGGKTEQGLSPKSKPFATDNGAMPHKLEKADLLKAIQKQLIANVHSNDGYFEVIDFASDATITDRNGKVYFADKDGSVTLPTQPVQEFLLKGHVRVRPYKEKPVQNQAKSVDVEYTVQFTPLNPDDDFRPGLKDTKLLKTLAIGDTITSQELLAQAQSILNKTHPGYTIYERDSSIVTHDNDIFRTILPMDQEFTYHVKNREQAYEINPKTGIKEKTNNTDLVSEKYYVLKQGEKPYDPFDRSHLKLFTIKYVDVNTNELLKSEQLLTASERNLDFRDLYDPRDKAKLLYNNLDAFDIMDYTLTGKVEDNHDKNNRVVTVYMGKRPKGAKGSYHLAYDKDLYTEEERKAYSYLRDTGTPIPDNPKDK

Streptococcus = experiment: Group A Streptococcus viability loss, dose response, counter-screen for streptokinase expression inhibitor project, luminescence, BacTiterGlo (AID 1915); type: functional, organism-based;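 further: potency for reduction of bacterial viability or growth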
[14] = Luminescence Cell-Based Dose Response HTS to Identify Activators of Luciferase Translation or Activity in H4 […] Cells. [Related pubchem assays: 1829 (Project Summary), 1814 (Primary HTS)]; type: functional
[15] = inhibitors of intracellular T. cruzi replication, confirmation, NIH3T3 host cells, beta-gal luminescence (AID 2044); type: functional, cell-based;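 further: intracellular parasites grown in NIH/3T3 mouse fibroblasts as host cells; luminescent beta-galactosidase reporter signal from transgenic T. cruzi replicating inside host cells; inhibitors lower the luminescence signal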
[16] = cytotoxicity toward NIH3T3 fibroblasts, dose response, counter-screen, cell-based, ATP luminescence, mouse fibroblasts (AID 2010); type: functional;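 further: cells exposed to compound for about 90 hours before reading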
[17] = inhibitors of firefly luciferase expression or activity, dose response, H4 neuroglioma cells, luminescence (AID 1990); type: functional, cell-based
HEK293 [18] = experiment: NOD1 signaling inhibitors, primary screen, cell-based, luminescence, uHTS (AID 1578); type: functional; settings: Homo sapiens
HEK293 [19] = experiment: cells; type: functional, cell-based; settings: Homo sapiens; remark: listed apart in the source
[20] = Luminescence Cell-Based Dose Response HTS to Identify Inhibitors of 5'UTR Stem-Loop Driven Prion Protein mRNA Translation in H4 Neuroglioblastoma Cells. [Related pubchem assays: 1827 (Project Summary), 1813 (Primary HTS)]; type: functional
[21] = inhibitors of SNCA 5'UTR-driven reporter translation, confirmation, H4 neuroglioma cells, luminescence (AID 1988); type: functional, cell-based
HEK293 [22] = experiment: cells; type: functional, cell-based; settings: Homo sapiens; remark: listed apart in the source
HEK293 [23] = experiment: NOD2 signaling inhibitors in MDP-stimulated cells, cell-based, uHTS, luminescence (AID 2001); type: functional; settings: Homo sapiens
HEK293 [24] = experiment: inhibitors of LMP1-driven NF-kB reporter, dose response, cell-based, HEK293, luciferase, cherry-pick (AID 588343); type: functional; settings: Homo sapiens
[25] = LGR2 antagonists, dose response, cell-based, HEK293, CRE-luciferase reporter, cherry pick, set 2 (AID 743343); type: functional;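 further: transfected cells were stimulated with diluted bursicon conditioned medium after compound addition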
[26] = MC4R antagonists, dose response, counter-screen for LGR2 antagonist project, cell-based, plate reader, cherry pick (AID 743444); type: functional;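 further: transfected HEK 293 cells stimulated with alpha-MSH peptide; potency of inhibitors of the alpha-MSH evoked signal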

Cytochrome P450 2D6, sequence (P10635 whole entry): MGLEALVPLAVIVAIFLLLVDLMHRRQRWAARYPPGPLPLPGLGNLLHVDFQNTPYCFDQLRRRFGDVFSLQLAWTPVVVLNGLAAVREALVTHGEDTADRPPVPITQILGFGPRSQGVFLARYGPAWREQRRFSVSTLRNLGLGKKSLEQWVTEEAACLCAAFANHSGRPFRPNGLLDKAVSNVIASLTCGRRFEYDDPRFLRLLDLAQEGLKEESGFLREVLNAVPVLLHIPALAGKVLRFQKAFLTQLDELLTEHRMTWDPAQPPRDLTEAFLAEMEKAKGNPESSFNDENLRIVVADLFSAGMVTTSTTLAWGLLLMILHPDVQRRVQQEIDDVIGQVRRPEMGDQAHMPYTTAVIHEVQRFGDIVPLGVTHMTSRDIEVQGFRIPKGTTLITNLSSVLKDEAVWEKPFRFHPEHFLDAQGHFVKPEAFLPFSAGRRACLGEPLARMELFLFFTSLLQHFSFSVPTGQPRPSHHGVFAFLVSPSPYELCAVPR
Cytochrome P450 2C9, sequence (P11712 whole entry): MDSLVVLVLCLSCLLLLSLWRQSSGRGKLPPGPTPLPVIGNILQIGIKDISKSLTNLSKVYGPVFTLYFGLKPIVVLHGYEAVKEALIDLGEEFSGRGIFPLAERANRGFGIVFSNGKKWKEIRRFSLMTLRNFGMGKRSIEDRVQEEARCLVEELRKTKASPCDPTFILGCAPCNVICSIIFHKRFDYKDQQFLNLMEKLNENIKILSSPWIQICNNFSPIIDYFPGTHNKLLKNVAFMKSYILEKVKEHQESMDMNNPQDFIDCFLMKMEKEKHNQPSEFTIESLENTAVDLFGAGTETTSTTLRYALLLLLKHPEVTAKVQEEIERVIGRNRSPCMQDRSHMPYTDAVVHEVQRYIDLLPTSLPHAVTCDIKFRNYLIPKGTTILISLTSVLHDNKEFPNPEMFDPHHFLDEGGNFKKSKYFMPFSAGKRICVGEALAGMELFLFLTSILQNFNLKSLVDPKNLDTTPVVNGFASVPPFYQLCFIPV

Cc1ccc(C)c(C(=O)C2=C(O)C(=O)N(Cc3cccnc3)C2c2cccnc2)c1 (centres undefined)
AC50 (Cytochrome P450 2C9): 3.16 µM (inconclusive)
AC50 (Cytochrome P450 2D6): inconclusive

Cc1nnc(-c2ccc(Cl)cc2)c2cn(-c3ccccc3)nc12
EC50 [1]: > 32 µM (inactive)
EC50 (Cannabinoid receptor 1 [2]): > 32 µM (inactive)
IC50 [3]: > 32 µM (inactive)
IC50 (Cannabinoid receptor 1 [4]): 3.58 µM (active)
IC50 [5]: 19.2 µM (inactive)
IC50 (Cannabinoid receptor 2 [6]): 19.5 µM (inactive)
EC50 (Cannabinoid receptor 2 [7]): > 32 µM (inactive)

Cc1nc(-c2cccc(S(=O)(=O)N3CCOCC3)c2)cs1
AC50 (Escherichia coli): 35.7 µM (active)

Cc1ccnc2nc(C(=O)Nc3nc(-c4ccccn4)cs3)nn12
IC50 (Nonstructural protein 1): 5.06 µM (active)
IC50 (HEK293 [8]): 65.2 µM (inactive)
IC50 [9]: > 67.5 µM (inactive)

Fc1ccccc1/C=N/Nc1cc(N2CCCCC2)ncn1
IC50 (HEK293 [8]): > 67.5 µM (inactive)
IC50 [9]: > 67.5 µM (inactive)

O=C(c1ccc(Cn2cnnn2)cc1)N1CCCC(Nc2ccc(F)cc2)C1 (centres undefined)
AC50 (Trypsin): 5.79 µM (active)
AC50 (CAAX prenyl protease 2 [10]): 5.9 µM (active)
AC50 (CAAX prenyl protease 2 [11]): 22.6 µM (active)

COc1cc(-c2c(C#N)c(N)nc3c2c(C)nn3-c2ccc(C)c(C)c2)cc(OC)c1OC
CC50 [12]: 22.1 µM (active)
EC50 [13]: 5.69 µM (active)
EC50 (Streptokinase A): > 150 µM (not active)
EC50 (Streptococcus): 36.4 µM (active)
AC50 (Trypsin): 16.1 µM (active)
AC50 (CAAX prenyl protease 2 [11]): 11.2 µM (active)
IC50 (cells): 31.8 µM (active)

O=C(Nc1ccc(F)cc1)/C(Cl)=C/c1ccccc1
EC50 [14]: 5.09 µM (active)
IC50 (HEK293 [8]): > 67.5 µM (inactive)
IC50 [9]: > 67.5 µM (inactive)

Clc1ccc(C2[C@H]3CN(Cc4cccnc4)[C@H](c4ccccc4)C34CC2(c2ccccc2)C4)cn1 (some centres undefined)
EC50 [15]: 1.61 µM (active)
EC50 [16]: 9.94 µM (active)
AC50 (Escherichia coli): 34.8 µM (active)

O=C1OCCC1Sc1nnc(-c2ccc(Cl)cc2Cl)o1 (centres undefined)
EC50 [17]: 7.77 µM (active)
EC50 (HEK293 [18]): 6.32 µM (active)
IC50 (HEK293 [19]): 6.93 µM (active)
EC50 [20]: 9.97 µM (active)
EC50 [21]: 8.84 µM (active)
IC50 (HEK293 [22]): > 20 µM (inactive)
IC50 (HEK293 [23]): 13 µM (inactive)
AC50 (HEK293 [24]): 7.18 µM (active)
AC50 [25]: 9.34 µM (active)
AC50 [26]: 9.84 µM (active)

CC(C)NC(=O)c1cc2c(=O)n3ccccc3nc2n(C2CCCC2)c1=N
EC50 [1]: > 32 µM (inactive)
EC50 (Cannabinoid receptor 1 [2]): > 32 µM (inactive)
IC50 [3]: > 32 µM (inactive)
IC50 (Cannabinoid receptor 1 [4]): > 32 µM (inactive)
IC50 [5]: > 32 µM (inactive)
IC50 (Cannabinoid receptor 2 [6]): > 32 µM (inactive)
EC50 (Cannabinoid receptor 2 [7]): 9.06 µM (active)

CCn1c2ccccc2c2cc(/C=N/NC(=O)c3ccc(O)cc3)ccc21
AC50 (Trypsin): 4.51 µM (active)
AC50 (CAAX prenyl protease 2 [10]): 21.6 µM (active)
AC50 (CAAX prenyl protease 2 [11]): 40.3 µM (active)

COc1ccc(-c2nnc(C)c3nn(-c4ccc(Cl)cc4)cc23)cc1
EC50 [1]: > 32 µM (inactive)
EC50 (Cannabinoid receptor 1 [2]): > 32 µM (inactive)
IC50 [3]: > 32 µM (inactive)
IC50 (Cannabinoid receptor 1 [4]): 1.47 µM (active)
IC50 [5]: 3.56 µM (active)
IC50 (Cannabinoid receptor 2 [6]): 13.2 µM (inactive)
EC50 (Cannabinoid receptor 2 [7]): > 32 µM (inactive)

CNC(=O)OCC[N+](C)(C)C
AC50 (Cytochrome P450 2D6): inconclusive
